Results from patent US5214037A, “Thioalkylthio cephalosporin derivatives” (Shionogi & Co., Ltd., priority 1990, dated 1993).
In brackets after ≈: the same amount, converted by molar mass. Counter-ions that a name gives are not always drawn.

Experiments:
Morgania morganii SR9 = experiment: Antibacterial activity in vitro, minimal inhibitory concentration (two-fold agar dilution); type: cell-based
Experimental: (§1) Antibacterial activity in vitro : A solution of the test compound in 0.01N-aqueous sodium hydrogen carbonate was applied to an agar plate by two-fold dilution method and the minimal inhibitory concentrations against Gram-negative and Gram-positive bacteria were measured according to the standard method of the Japan Society of Chemotherapy.

[1] = test system: Enterobacter cloacae SR233; experiment: as above; type: cell-based
Experimental: as §1

[2] = Blood level at 15 minutes after oral administration to mice; type: in vivo, mouse; details: 40 mg/kg oral; for concentration at 0.25 h: mouse, blood
Experimental: The in vivo absorption rate of the compound I after oral administration was determined by administering a compound of the invention to mouse and measuring the blood level.
Blood level at 15 minutes after oral administration : A test compound (40 mg/kg) in a 5% suspension of arabic gum was administered to a mouse (weighing ca. 25 g) through an enteral tube. After 15 minutes, the blood in the heart cavity was taken and the concentration of the test compound was measured by the band culture method using Escherichia coli 7437.

[3] = test system: Staphylococcus aureus Smith; experiment: Antibacterial activity in vitro, minimal inhibitory concentration (two-fold agar dilution); type: cell-based
Experimental: as §1

[4] = test system: Staphylococcus aureus 209P JC-1; experiment: as above; type: cell-based; details: Staphylococcus aureus 209P JC-1, agar dilution
Experimental: as §1

Escherichia coli 7437 = experiment: as above; type: cell-based; details: Escherichia coli 7437, agar dilution
Experimental: as §1

Proteus vulgaris CN-329 = experiment: as above; type: cell-based; details: CN329; Proteus vulgaris CN-329, agar dilution
Experimental: as §1

Escherichia coli EC-14 = experiment: as above; type: cell-based; details: EC14; Escherichia coli EC-14, agar dilution
Experimental: as §1

[5] = test system: Pseudomonas aeruginosa A25619; experiment: as above; type: cell-based
Experimental: as §1

Proteus mirabilis PR4 = experiment: as above; type: cell-based
Experimental: as §1

[6] = test system: Serratia marcescens SR1005; experiment: as above; type: cell-based
Experimental: as §1

[7] = test system: Serratia marcescens A13880; experiment: as above; type: cell-based
Experimental: as §1

[8] = test system: Haemophilus influenzae SR3508; experiment: as above; type: cell-based
Experimental: as §1

[9] = test system: Klebsiella pneumoniae SR1; experiment: as above; type: cell-based; details: unit cut off in print
Experimental: as §1

Escherichia coli SR377 = experiment: as above; type: cell-based
Experimental: as §1

Nc1nc(/C(=N/O)C(=O)N[C@@H]2C(=O)N3C(C(=O)O)=C(SCSCc4c[nH]nn4)CS[C@H]23)cs1 [Example 6-1, 7β-[(Z)-2-(2-aminothiazol-4-yl) -2-hydroxyiminoacetamido]-3-(1,2,3-triazol-4-ylmethylthiomethylthio) -3-cephem-4-carboxylic acid]
MIC (Morgania morganii SR9): 0.1 µg/mL (≈ 0.189 µM) | MIC [1]: 0.8 µg/mL (≈ 1.51 µM) | concentration at 0.25 h [2]: 12100 ng/mL

O=C(CSC(F)F)N[C@@H]1C(=O)N2C(C(=O)O)=C(SCSc3c[nH]nn3)CS[C@H]12 [Example 7-1, 7β-difluoromethylthioacetamido-3-(1,2,3-triazol-4-ylthiomethylthio)-3-cephem-4-carboxylic acid]
MIC [3]: 0.1 µg/mL (≈ 0.213 µM) | concentration at 0.25 h [2]: 28000 ng/mL

O=C(Cc1ccccc1)N[C@@H]1C(=O)N2C(C(=O)O)=C(SCSc3c[nH]nn3)CS[C@H]12 [Example 7-2, 7β-phenylacetylamino-3-(1,2,3-triazol-4-yl) thiomethylthio-3-cephem-4-carboxylic acid]
MIC [4]: 0.05 µg/mL (≈ 0.108 µM) | MIC [3]: 0.05 µg/mL (≈ 0.108 µM) | concentration at 0.25 h [2]: 15000 ng/mL

O=C(O)C1=C(SCSc2c[nH]nn2)CS[C@@H]2[C@H](NC(=O)[C@H](O)c3ccccc3)C(=O)N12 [Example 7-3, 7β-D-mandelamido-3-(1,2,3-triazol-4-ylthiomethylthio)-3-cephem-4-carboxylic acid]
concentration at 0.25 h [2]: 18500 ng/mL

Nc1nc(/C(=N/O)C(=O)N[C@@H]2C(=O)N3C(C(=O)O)=C(SCSc4c[nH]nn4)CS[C@H]23)cs1 [Example 7-5]
MIC (Escherichia coli 7437): 0.02 µg/mL (≈ 0.0389 µM) | MIC [1]: 0.8 µg/mL (≈ 1.55 µM) | blood level on oral administration [2]: 29600 ng/mL | concentration at 0.25 h [2]: 29600 ng/mL

CO/N=C(\C(=O)N[C@@H]1C(=O)N2C(C(=O)O)=C(SCSc3c[nH]nn3)CS[C@H]12)c1csc(N)n1 [Example 7-6, 7β-(Z)-2-(2-aminothiazol-4-yl)-2-methoxyiminoacetyl]amino-3-(1,2,3-triazol-4-yl) thiomethylthio-3-cephem-4-carboxylic acid sodium salt]
MIC (Morgania morganii SR9): 0.1 µg/mL | MIC (Proteus vulgaris CN-329): 0.02 µg/mL | concentration at 0.25 h [2]: 15000 ng/mL

Nc1nc(/C(=N/OC2CCCC2)C(=O)N[C@@H]2C(=O)N3C(C(=O)O)=C(SCSc4c[nH]nn4)CS[C@H]23)cs1 [Example 7-7, 7β-[(Z)-2-(2-aminothiazol-4-yl)-2-cyclopentyloxyiminoacetamido]-3-(1,2,3-triazol-4-ylthiomethylthio)-3-cephem-4-carboxylic acid]
MIC (Escherichia coli EC-14): 0.8 µg/mL (≈ 1.37 µM) | MIC [5]: 0.8 µg/mL (≈ 1.37 µM)

C=CCO/N=C(\C(=O)N[C@@H]1C(=O)N2C(C(=O)O)=C(SCSc3c[nH]nn3)CS[C@H]12)c1csc(N)n1 [Example 7-8, 7β-[(Z)-2-(2-aminothiazol-4-yl)-2-(2-propenyloxyimino)acetamido]-3-(1,2,3-triazol-4-ylthiomethylthio) -3-cephem-4-carboxylic acid]
MIC (Escherichia coli EC-14): 0.4 µg/mL (≈ 0.721 µM) | MIC [1]: 0.8 µg/mL (≈ 1.44 µM)

Nc1nc(CC(=O)N[C@@H]2C(=O)N3C(C(=O)O)=C(SCSc4c[nH]nn4)CS[C@H]23)cs1 [Example 7-10, 7β-[2-(2-aminothiazol-4yl)acetamido]-3-(1,2,3-triazol-4-ylthiomethylthio)-3-cephem-4-carboxylic acid]
MIC (Escherichia coli EC-14): 0.8 µg/mL (≈ 1.65 µM) | MIC (Proteus vulgaris CN-329): 0.8 µg/mL (≈ 1.65 µM) | MIC [3]: 0.1 µg/mL (≈ 0.206 µM) | concentration at 0.25 h [2]: 17100 ng/mL

Nc1nc(C(=O)C(=O)N[C@@H]2C(=O)N3C(C(=O)O)=C(SCSc4c[nH]nn4)CS[C@H]23)cs1 [Example 7-11, 7β-[2-(2-aminothiazol-4-yl)glyoxylylamido]-3-(1,2,3-triazol-4-ylthiomethylthio) -3-cephem-4-carboxylic acid]
MIC (Escherichia coli EC-14): 0.4 µg/mL (≈ 0.801 µM)

Nc1nc(/C(=N/OCC(=O)O)C(=O)N[C@@H]2C(=O)N3C(C(=O)O)=C(SCSc4c[nH]nn4)CS[C@H]23)cs1 [Example 7-13, 7μ-[(Z)-2-(2-aminothiazol-4-yl)-2-(sodiooxycarbonylmethoxyimino)acetamido]-3-(1,2,3-triazol-4-ylthiomethylthio) -3-cephem-4-carboxylic acid sodium salt]
MIC (Proteus vulgaris CN-329): 0.006 µg/mL | MIC (Proteus mirabilis PR4): 0.006 µg/mL

C[C@H](O/N=C(\C(=O)N[C@@H]1C(=O)N2C(C(=O)O)=C(SCSc3c[nH]nn3)CS[C@H]12)c1csc(N)n1)C(=O)O [Example 7-14, 7μ-(Z)-2-(2-aminothiazol-4-yl)-2-[(S)-1-sodiooxycarbonylethoxyimino]acetamido}-3-(1,2,3-triazol-4-ylthiomethylthio)-3-cephem-4-carboxylic acid sodium salt]
MIC (Escherichia coli EC-14): 0.2 µg/mL | MIC (Proteus vulgaris CN-329): 0.006 µg/mL | MIC (Proteus mirabilis PR4): 0.01 µg/mL

C=C(O/N=C(\C(=O)N[C@@H]1C(=O)N2C(C(=O)O)=C(SCSc3c[nH]nn3)CS[C@H]12)c1csc(N)n1)C(=O)O [Example 7-15, 7μ-[(Z)-2-(2-aminothiazol-4-yl)-2-(1-carboxyvinyloxyimino)acetamido]-3-(1,2,3-triazol-4-ylthiomethylthio)-3-cephem-4-carboxylic acid]
MIC [6]: 0.8 µg/mL (≈ 1.37 µM) | MIC (Proteus mirabilis PR4): < 0.003 µg/mL

CC(C)(O/N=C(\C(=O)N[C@@H]1C(=O)N2C(C(=O)O)=C(SCSc3c[nH]nn3)CS[C@H]12)c1csc(N)n1)C(=O)O [Example 7-16, 7μ-[(Z)-2-(2-aminothiazol-4-yl) -2-(1-carboxy-1-methylethoxyimino)acetamido]-3-(1,2,3-triazol-4-ylthiomethylthio)-3-cephem-4-carboxylic acid]
MIC [5]: 1.6 µg/mL (≈ 2.66 µM) | MIC [7]: 0.8 µg/mL (≈ 1.33 µM) | MIC (Proteus mirabilis PR4): 0.01 µg/mL (≈ 0.0166 µM)

Cn1cc(SCSC2=C(C(=O)O)N3C(=O)[C@@H](NC(=O)/C(=N\O)c4csc(N)n4)[C@H]3SC2)nn1 [Example 7-17, 7μ-[(Z)-2-(2-aminothiazol-4-yl) -2-hydroxyiminoacetamido]-3-(1-methyl-1,2,3-triazol-4-yl)thiomethylthio-3-cephem-4-carboxylic acid]
MIC [8]: 0.1 µg/mL (≈ 0.189 µM) | MIC (Escherichia coli 7437): 0.02 µg/mL (≈ 0.0378 µM) | MIC [1]: 0.8 µg/mL (≈ 1.51 µM)

Cn1ncc(SCSC2=C(C(=O)O)N3C(=O)[C@@H](NC(=O)/C(=N\O)c4csc(N)n4)[C@H]3SC2)n1 [Example 7-18, 7μ-[(Z)-2-(2-aminothiazol-4-yl)-2-hydroxyiminoacetamido]-3-(2-methyl-1,2,3-triazol-4-yl)thiomethylthio-3 cephem-4-carboxylic acid]
MIC (Escherichia coli 7437): 0.02 µg/mL (≈ 0.0378 µM)

Cn1nncc1SCSC1=C(C(=O)O)N2C(=O)[C@@H](NC(=O)/C(=N\O)c3csc(N)n3)[C@H]2SC1 [Example 7-19]
MIC (Escherichia coli 7437): 0.02 µg/mL (≈ 0.0378 µM) | MIC [1]: 0.4 µg/mL (≈ 0.757 µM)

Nc1nc(/C(=N/O)C(=O)N[C@@H]2C(=O)N3C(C(=O)O)=C(SCSc4nc[nH]n4)CS[C@H]23)cs1 [Example 7-20, 7μ-[(Z)-2-(2-aminothiazol-4-yl)-2-hydroxyiminoacetamido]-3-(1,2,4-triazol-3-yl)thiomethylthio-3-cephem-4-carboxylic acid]
MIC (Escherichia coli 7437): 0.02 µg/mL (≈ 0.0389 µM) | MIC [9]: 0.05 µg/mL (≈ 0.0972 µM) | MIC [1]: 0.8 µg/mL (≈ 1.55 µM)

Nc1nc(/C(=N/O)C(=O)N[C@@H]2C(=O)N3C(C(=O)O)=C(SCSc4cnns4)CS[C@H]23)cs1 [Example 7-24, 7μ-[(Z)-2-(2-aminothiazol-4-yl)-2-hydroxyiminoacetyl]amino-3-(1,2,3-thiadiazol-5-yl) thiomethylthio-3-cephem-4-carboxylic acid]
MIC (Escherichia coli SR377): 0.4 µg/mL (≈ 0.752 µM) | MIC (Escherichia coli 7437): 0.01 µg/mL (≈ 0.0188 µM) | MIC [1]: 0.4 µg/mL (≈ 0.752 µM)

Nc1nc(/C(=N/O)C(=O)N[C@@H]2C(=O)N3C(C(=O)O)=C(SCSc4nncs4)CS[C@H]23)cs1 [Example 7-25, 7μ-[(Z)-2-(2-aminothiazol-4-yl)-2-hydroxyiminoacetamido]-3-(1,3,4-thiadiazol-2-ylthiomethylthio)-3-cephem-4-carboxylic acid]
MIC (Escherichia coli SR377): 0.4 µg/mL (≈ 0.752 µM) | MIC (Morgania morganii SR9): 0.1 µg/mL (≈ 0.188 µM) | MIC [1]: 0.4 µg/mL (≈ 0.752 µM)

Cc1nnc(SCSC2=C(C(=O)O)N3C(=O)[C@@H](NC(=O)/C(=N\O)c4csc(N)n4)[C@H]3SC2)s1 [Example 7-26, 7μ-[(Z)-2-(2-aminothiazol-4-yl)-2-hydroxyiminoacetamido]-3-(2-methyl-1,3,4-thiadiazol-5-ylthiomethylthio)-3-cephem-4-carboxylic acid]
MIC (Escherichia coli SR377): 0.8 µg/mL (≈ 1.47 µM) | MIC (Morgania morganii SR9): 0.05 µg/mL (≈ 0.0916 µM) | MIC (Escherichia coli 7437): 0.02 µg/mL (≈ 0.0367 µM) | MIC [1]: 0.8 µg/mL (≈ 1.47 µM)

Nc1nc(/C(=N/O)C(=O)N[C@@H]2C(=O)N3C(C(=O)O)=C(SCSc4nn[nH]n4)CS[C@H]23)cs1 [Example 7-27, 7μ-[(Z) 2-(2-aminothiazol-4-yl)-2-hydroxyiminoacetyl]amino-3-(tetrazol-5-yl)thiomethylthio-3-cephem-4-carboxylic acid]
MIC (Escherichia coli 7437): 0.01 µg/mL (≈ 0.0194 µM)

Cn1nnnc1SCSC1=C(C(=O)O)N2C(=O)[C@@H](NC(=O)/C(=N\O)c3csc(N)n3)[C@H]2SC1 [Example 7-28, 7μ-[(Z)-2-(2-aminothiazol-4-yl)-2-hydroxyiminoacetyl]amino-3-(1-methyl-5-tetrazolyl) thiomethylthio-3-cephem-4-carboxylic acid]
MIC (Escherichia coli SR377): 0.4 µg/mL (≈ 0.755 µM) | MIC (Morgania morganii SR9): 0.1 µg/mL (≈ 0.189 µM) | MIC (Escherichia coli 7437): 0.02 µg/mL (≈ 0.0378 µM) | MIC [1]: 0.8 µg/mL (≈ 1.51 µM)

Nc1nc(/C(=N/O)C(=O)N[C@@H]2C(=O)N3C(C(=O)O)=C(SCSc4ccccn4)CS[C@H]23)cs1 [Example 7-30]
MIC (Escherichia coli 7437): 0.01 µg/mL (≈ 0.0191 µM) | concentration at 0.25 h [2]: 18700 ng/mL
